Measured values as given in US20230013435A1, “COMPOSITION FOR TREATING SYNUCLEINOPATHIES” (STANDIGM INC., priority 2019, published 2023).

System: SH-SYSY cell line
Experiment: Cytotoxicity, cell viability by MTT test
Format: cell-based
Conditions: SH-SYSY cells
Description: An SH-SYSY cell line (ATCC) was used to confirm the cytotoxicity of nevirapine. The SH-SYSY cell line was seeded in a 96-well plate, cultured, treated with an increasing concentration (0, 10, 100 μM) of nevirapine, and then incubated at a constant temperature for 24 hours. Thereafter, cell viability was measured using an MTT test method. Cells treated with 0 μM nevirapine were used as the control. ***P<0.001 against the control. Also, in the next experiment, the cytotoxicity of pirenzepine to be used as a reference drug was tested in the same manner as in the cytotoxicity experiment of nevirapine.

SMILES	cell viability compared with the control (10 μM, 24 hours)	decrease in cell viability (100 μM, 24 hours)	cell viability compared with the control (0.5 μM)	decrease in cell viability (10 μM)
Cc1ccnc2c1NC(=O)c1cccnc1N2C1CC1 [nevirapine, 11-cyclopropyl-5,11-dihydro-4-methyl-6H-dipyrido[3,2-b:2′,3′-e][1,4]diazepin-6-one]	not changed significantly	approximately 70%	–	–
CN1CCN(CC(=O)N2c3ccccc3C(=O)Nc3cccnc32)CC1 [pirenzepine]	–	–	slight decrease	approximately 60%
